US7829114B2, “Capsules containing aqueous fill compositions stabilized with derivatized cyclodextrin” (CyDex Pharmaceuticals, Inc., priority 2002, dated 2010)
Read-outs that look alike come from different tables or passages of the source.

What was measured:
[1] = Shell stability on exposure to aqueous fill composition (half-shell integrity test, H.S.I.T.); conditions: for content in fill composition for an HSIT rating of at least 3: PVP and water fill, lipophilic fill-grade BANNER SGC
Method: A study was conducted to determine whether or not complexation of a drug to the SAE-CD alters the ability of the SAE-CD to stabilize the capsule shell against dissolution, erosion, swelling or degradation caused by water in the fill composition enclosed within the capsule shell. Banner's hydrophilic, HFB, and lipophilic, LFB, air fill size 35 oval gelatin capsules were used in this study, which was performed as described below. […] The SAE-CD was slowly added to the water while it was stirring and on a hot plate. Agitation continued until all the SAE-CD dissolved. The SAE-CD was divided by weighing in equal amounts into nine vials (one for each drug). […] The amount of drug added produced a composition that contained a normal dose of drug in 1 gram. The vials were agitated and heated until a solution was obtained or the active was uniformly suspended. […]
Method A: Half-Shell integrity Test (H.S.I.T.)
In a closed container, a portion of a capsule shell is exposed to an aqueous fill composition comprising a known amount of derivatized cyclodextrin, water and optionally one or more other excipients. Observation of changes, or lack thereof, on the exposed portion's size, appearance, shape, dissolution, erosion, degradation, hardness, and/or translucence are recorded periodically over time. A rating scale is used to quantify the overall performance of the capsule portion during the test.

[2] = Hard shell capsule stability in aqueous SBE-CD solutions; format: physicochemical; conditions: for content in fill composition for an HSIT rating of at least 3: SAE-CD, PVP and water fill, CAPSUGEL HPMC hard shell capsule; for failure time: vcap, monitoring discontinued after fourteen days
Method: (§1) Two types of hard shell capsules obtained from […] were evaluated. A conventional hard gelatin capsule (HCAP) and a hard HPMC (hydroxypropyl methylcellulose) capsule (VCAP) were evaluated under identical conditions using aqueous solutions differing in the concentration of SBE-CD (sulfobutyl ether cyclodextrin).
In the absence of SBE or another shell-stabilizing material, these shell materials were unstable to erosion, dissolution, swelling and degradation by water. Under the conditions of the assay, SBE cyclodextrin was able to stabilize the VCAP shells for ≧14 days even at concentrations of ≧30% wt. of the fill composition. In this assay, monitoring was discontinued after fourteen days.

[3] = as above; format: physicochemical; conditions: SAE-CD, PVP and water fill; CAPSUGEL HGC
[4] = as above; format: physicochemical; conditions: hardcap
Method: as §1

[5] = Shell stability toward aqueous fill composition, statements on soft gelatin capsules; format: physicochemical; conditions: for stability provided to capsules: about ≧50% wt.
[6] = H.S.I.T. rating versus SBE concentration (FIG. 3); format: physicochemical
From the text: FIG. 3 depicts a chart of the relationship between concentration of SBE cyclodextrin and H.S.I.T. (HALF-SHELL integrity test) rating for HGC (hard gelatin capsule From […]), HGS (hard gelatin capsule from SHIONOGI), HPC (hard hydroxypropyl methylcellulose shell from […]), and HPS (hard hydroxypropyl methylcellulose shell from SHIONOGI), and SSS (soft starch shell […]). The stability obtained was dependent upon the composition of the capsule gel.

[7] = Water activity measurement; format: physicochemical; conditions: about 20-25° C.
Method: Without being held bound to a particular mechanism, it is believed that the increasing the concentration of derivatized cyclodextrin present in the aqueous fill composition results in reduced water activity for the fill composition. The table below provides a summary of water activity versus concentration of cyclodextrin derivatives or some shell-stabilizing materials in water at about 20-25° C., or ambient temperature.
The values detailed above are approximate and can vary from instrument to instrument. These values were determined according to the procedure described herein on a water activity meter described herein. The numbers can also vary within the standard deviation of a particular instrument. It is also possible for the numbers to vary according to the accuracy and reproducibility of the instrument used as well as the method for calibrating the instrument with solution standards of known water activity.
Water activity was measured by placing a sample solution in a small, sealed container and determining the equilibrium humidity and temperature in the container. Instruments such as the HygroLab 3 from Rotronic Instrument Corp. , Huntington, N.Y. were used to measure the water activity. The humidity is determined using a thin film capacitive sensor in the headspace of the container. The temperature is determined using a Pt RTD 100 sensor. From these measurements the activity of water (Aw) is calculated by the instrument. The instrument has an accuracy of about ±0.015 Aw and a repeatability of about ±0.005 Aw. Carefully prepared salt-containing stock solutions of known concentration and water activity were used to calibrate the instrument prior to use.

[8] = 40% wt. cyclodextrin derivative in water, LFB
[9] = 50% wt. cyclodextrin derivative in water, LFB
[10] = 55% wt. cyclodextrin derivative in water, LFB
[11] = 60% wt. cyclodextrin derivative in water, LFB

**Q.** With `O` [Water] as the molecule, how does the “content in fill composition for a stabilized capsule formulation” value ([1]; SAE-CD, PEG and water fill, LFB) read?
**A.** ≦50%

**Q.** What about the “content in fill composition for an HSIT rating of at least 3” value (“content in fill composition … at least 3” for short) ([1]; SAE-CD) of the same molecule?
**A.** ≦54%

**Q.** And the “content in fill composition … at least 3” value [2]?
**A.** ≦70%

**Q.** And the “content in fill composition … at least 3” value [3]?
**A.** ≦36%

**Q.** Which results are given for sulfobutyl ether cyclodextrin [SAE-CD]?
**A.** content in fill composition for a stabilized capsule formulation [1]: ≧18%; Increase in shell size [1, 8]: 2.5× × original; Observations [1, 8]: shape intact; Time for failure [1, 8]: 3 days; Increase in shell size [1, 9]: 2.5 × original; Observations [1, 9]: Deformed; Time for failure [1, 9]: 7 days; Increase in shell size [1, 10]: 2 × original; Observations [1, 10]: Deformed; Time for failure [1, 10]: 10 days; Increase in shell size [1, 11]: no change in length; Observations [1, 11]: Slight; Time for failure [1, 11]: ≧21 days; content in fill composition for an HSIT rating of at least 3 ([1]; SAE-CD): ≧6%; Observations ([4]; 30% SBE solution): deformed/bends; failure time ([4]; 30% SBE solution): 24 h; size ([4]; 30% SBE solution): 2 × × length; Observations ([4]; 40% SBE solution): deformed/closed; failure time ([4]; 40% SBE solution): 48 h; size ([4]; 40% SBE solution): >2 × × width; Observations ([4]; 50% SBE solution): deformed/closed; failure time ([4]; 50% SBE solution): 48 h; size ([4]; 50% SBE solution): 2 × × width; Observations ([4]; 60% SBE solution): closed/stuck; failure time ([4]; 60% SBE solution): 96 h; size ([4]; 60% SBE solution): 2 × × width; failure time ([2]; 30% SBE solution): >14 days; failure time ([2]; 40% SBE solution): >14 days; failure time ([2]; 50% SBE solution): >14 days; failure time ([2]; 60% SBE solution): >14 days; content in fill composition for an HSIT rating of at least 3 [2]: ≧6%; time VCAP shells were stabilized ([2]; concentrations of ≧30% wt. of the fill composition): ≥ 14 days; shelf-life of soft gelatin capsules ([5]; 50% wt. or more based upon total weight of water and SAE-CD or of the fill composition): at least one week; stability provided to capsules ([5]; LFB and LFC soft gelatin capsules as printed, FIG. 2): at least a one week stability; stability provided to capsules ([5]; LFB and LFC soft gelatin capsules, FIG. 1): at least a one week stability; water activity of fill composition that forms a stable soft gelatin capsule formulation ([5]; fill composition comprising SBE-CD, PEG and water, FIG. 8): ≤ 0.90±0.02; stability of shell toward fill composition ([5]; soft gelatin shells from BANNER PHARMACAPS, less than 40% by wt. SAE-CD): unstable; stability of shell toward fill composition ([5]; soft gelatin shells from BANNER PHARMACAPS, ≧50% wt. SAE-CD): stable for at least one week; stability of shell toward fill composition ([5]; soft gelatin shells from BANNER PHARMACAPS, ≧55% wt. SAE-CD): stable for at least ten days; stability of shell toward fill composition ([5]; soft gelatin shells from BANNER PHARMACAPS, ≧60% wt. SAE-CD): stable for at least three weeks; stability of shell toward fill composition ([5]; soft gelatin shells from CARDINAL HEALTH, less than 40% by wt. SAE-CD): unstable; stability of shell toward fill composition ([5]; soft gelatin shells from CARDINAL HEALTH, ≧50% wt. SAE-CD): stable for at least one week; stability of shell toward fill composition ([5]; soft gelatin shells from CARDINAL HEALTH, ≧55% wt. SAE-CD): stable for at least two weeks; time the capsules were stable ([5]; soft gelatin shells from CARDINAL HEALTH, ≧60% wt. SAE-CD): at least 21 days; water activity of fill composition that provides an increase in the stability of the shell ([5]; soft-gelatin capsule, the agent alone in water): less than 0.95; stability provided to capsules ([6]; SBE concentration of about ≧60% wt., hard gelatin capsules): at least a one-week stability; stability provided to capsules ([6]; hard hydroxypropyl methylcellulose capsules): at least a two-week stability; Water Activity (approximate values) ([7]; 10 % w/w in water): ~0.98; Water Activity (approximate values) ([7]; 20 % w/w in water): ~0.98; Water Activity (approximate values) ([7]; 30 % w/w in water): ~0.97; Water Activity (approximate values) ([7]; 40 % w/w in water): ~0.95; Water Activity (approximate values) ([7]; 50 % w/w in water): ~0.91; Water Activity (approximate values) ([7]; 55 % w/w in water): ~0.88; Water Activity (approximate values) ([7]; 60 % w/w in water): ~0.86; Water Activity (approximate values) ([7]; 70 % w/w in water): ~0.76; content in fill composition for an HSIT rating of at least 3 [3]: ≧24%
